Results: article PMC3503517 (Chembiochem : a European journal of chemical biology, 2011)
Where two headings read alike, the source gives them in different places.

Key:
human DCTPP1 [1] = biological target: T1, human DCTPP1 (Homo sapiens, UniProt Q9H773); assay type: biochemical
T1 sequence (Q9H773 1-170): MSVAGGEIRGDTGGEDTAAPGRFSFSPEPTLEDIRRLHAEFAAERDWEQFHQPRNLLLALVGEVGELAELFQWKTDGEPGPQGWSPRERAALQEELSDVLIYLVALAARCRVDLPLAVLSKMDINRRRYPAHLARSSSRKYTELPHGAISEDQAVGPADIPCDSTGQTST

HeLa cells [2] = assay: BrdC/BrdCTP incorporation into DNA detected with anti-BrdU antibody; assay type: cell-based, human; conditions: one-hour treatment
HeLa cells [3] = assay: Cytotoxicity; assay type: cell-based; conditions: Homo sapiens, 48 h, read-out: IC50 (cell number)
human DCTPP1 [4] = biological target: T1, human DCTPP1; conditions: ITC, 25°C, value ± SD
native gel or EMSA + SEC = biological target: the molecule itself; assay: native gel or EMSA + SEC

With `Nc1nc(=O)n([C@H]2C[C@H](O)[C@@H](COP(=O)(O)OP(=O)(O)OP(=O)(O)O)O2)cc1I` [5-I-dCTP] the Km (human DCTPP1 [1]; as substrate of DCTPP1) was 239 µM and the kcat (human DCTPP1 [1]; as substrate of DCTPP1) was 0.000864 s⁻¹.

With `Nc1nc(=O)n([C@H]2C[C@H](O)[C@@H](COP(=O)(O)OP(=O)(O)OP(=O)(O)O)O2)cc1Br` [BrdCTP] the “BrdU incorporation (fraction of anti-BrdU reactive cells)” value (HeLa cells [2]) was 30–43 % of cells.

`Nc1nc(=O)n([C@H]2C[C@H](O)[C@@H](CO)O2)cc1Br` [BrdC] was tested, and the “BrdU incorporation (fraction of anti-BrdU reactive cells)” value (HeLa cells [2]) was 30–43 % of cells.

For `CC(C)[C@]12O[C@H]1[C@@H]1O[C@]13[C@]1(O[C@H]1C[C@H]1C4=C(CC[C@@]13C)C(=O)OC4)[C@@H]2O` [compound 1, triptolide], the IC50 (HeLa cells [3]) was 7 to 10 nM, the ΔH (human DCTPP1 [4]) was -19.98 ± 1.70 kcal/mol and the ΔH (human DCTPP1 [4]; listed as triptolide) was “–19.98 ± 1.70 kcal/mol”. The “n (binding stoichiometry)” value (human DCTPP1 [4]; per DCTPP1 monomer) was 0.601 ± 0.075.

For `Nc1ccn([C@@H]2O[C@H](COP(=O)(O)OP(=O)(O)OP(=O)(O)O)[C@@H](O)C2(F)F)c(=O)n1` [gemcitabine triphosphate], the “activity as a DCTPP1 substrate” value (human DCTPP1 [1]; kinetic assays, data not shown) was “did not show activity as a DCTPP1 substrate”.

B1: recombinant human dCTP pyrophosphatase 1 (DCTPP1), GST tag cleaved off (enzyme, UniProt Q9H773 1-170, looked up)
chain: T1 sequence (Q9H773 1-170)
In the case of B1, the “stoichiometry N” value (native gel or EMSA + SEC) is reported as 2.
